The values below come from patent publication US20230000797A1, “COMPOSITIONS AND METHODS FOR TREATING MOTOR DISORDERS” (ARIZONA BOARD OF REGENTS ON BEHALF OF THE UNIVERSITY OF …, priority 2015, published 2023).

Entries after “also recorded” stand apart in the source; their conditions may differ.

The test system of data set [1] is unilateral 6-hydroxydopamine (6-OHDA)-lesioned rats. Briefly: Local-field activity recordings in M1 and DLS, rodent Parkinson's disease model. Format: in vivo, rat. The settings on record: 20 mg/kg, 5 i.p. injections every 2 hours. How it is done:
Using a 10-hour racemic ketamine paradigm (5 i.p. injections every 2 hours), simultaneous measurement of local-field activity in multiple brain structures in three awake and behaving unilateral 6-hydroxydopamine (6-OHDA)-lesioned rats, a common model of Parkinson's disease. Recordings were acquired from a 64 channel fixed electrode array. Average response across 3 animals. Power spectrogram from a 10 hour session created by averaging spectra acquired. Vertical lines indicate ketamine injection times.

The subject of data set [2] is unilaterally 6-OHDA-lesioned LID rats. Description: L-DOPA-induced AIMs in the preclinical rat LID model (10 hr ketamine 'infusion' paradigm or acute injection). The conditions noted are these: cohort #1; for L-DOPA-induced contralateral locomotor behavior / ipsiversive turning behavior (worsening of the Parkinsonism): all tested doses; for L-DOPA-induced contralateral locomotor behavior: 10 hr 'infusion'; for ipsiversive turning behavior (worsening of the Parkinsonism): in the presence of L-DOPA.

Data set [3] relates to patients with PD. Briefly: Low-dose ketamine infusion in PD patient case studies (retrospective chart review). Format: in vivo, human. How it is done:
We report on five cases of low-dose ketamine infusion in patients with PD identified by a retrospective chart review (Table 1). Ketamine was indicated for a variety of co-morbid conditions. The level of documentation of PD and LID symptoms pre and post-infusion was variable, but in many cases included standardized clinical rating scales collected by Movement Disorder specialists. […] Patients were treated in the intensive care unit using a protocol developed by one of the authors (ME) for treatment of intractable headache that specified titration of ketamine to a target rate of 0.15 mg/kg/hr for a 72 hr period.

Data set [4] concerns awake and behaving naive rats. Description: Local-field activity recordings in motor cortex (M1) and dorsolateral striatum (DLS), naive rats. Format: in vivo, rat. The settings on record: 20 mg/kg, 5 i.p. injections every 2 hours. How it is done: Using the 10-hour racemic ketamine paradigm (5 i.p. injections every 2 hours), simultaneous local-field activity in multiple brain structures in two awake and behaving naive rats was measured. Recordings were acquired from a 64 channel fixed electrode array. Average response across 2 animals and 5 sessions was obtained.

Data set [5] deals with striatal DA content. Description: Electrochemical detection (HPLC-EC) of striatal DA content. Format: in vivo, rat. How it is done:
Measurement of dopamine content: Coronal brain slices were collected and 2 mm steel biopsy punches were used to sample striatal tissue. Samples from left and right hemispheres were collected and immediately flash frozen on an aluminum pan at −70° C., as published (Flores et al., 2014). Samples massed at 2.5±0.5 mg and were then homogenized in dilute perchloric acid. High performance liquid chromatography with electrochemical detection (HPLC-EC) was used to quantify DA.

Data set [6] has as its system unilaterally 6-hydroxydopamine (6-OHDA)-lesioned PD rats. Briefly: Development of LID under once-weekly 10-hour infusion paradigm (LAO AIMs). Format: in vivo, rat. The settings on record: n=9 per group; for animals that did not develop any dyskinesia or only very subtle dyskinesia: 6 and 12 mg/kg L-DOPA periods. How it is done:
Unilaterally 6-hydroxydopamine (6-OHDA)-lesioned PD rats were injected daily with L-DOPA (days 0-13: 6 mg/kg; days 14-28: 12 mg/kg; i.p.) to induce dyskinesia and tested for limb, axial and oral (LAO) abnormal involuntary movements (AIMs) twice a week for 3 hours by blinded investigators.

In data set [7] the test system is tyrosine hydroxylase (TH). Description: Semi-quantitative western analysis of striatal tyrosine hydroxylase expression. Format: in vivo, rat. The settings on record: unilateral lesion; TH normalized to β-actin; n=15. How it is done:
Western analysis of tyrosine hydroxylase (TH) content: After the tissue punch, described above, the remaining striata from left and right hemispheres were immediately flash frozen and stored at —70 ° C. Total protein was prepared and semi-quantitative western analysis was conducted as described (Flores et al., 2014; Yue et al., 2014) with 3 modifications. 30 μg of protein/sample was loaded and analyzed on the same blot. Secondary antibody dilution for β-actin: 1:10,000. Images were analyzed with the G:Box XR5 Chemi system (Syngene, Frederick, Md.) using GeneSys v. 1.4.0.0.

The mark [8] stands for this setting: DLS and M1, after each injection.

On to `CNC1(c2ccccc2Cl)CCCCC1=O` (racemic) [ketamine, (RS)-2-(2-Chlorophenyl)-2-(methylamino)cyclohexanone], for which the “gamma band activity (40-60 Hz)” value in data set [1] (setting [8]) is on record as “clear increase”. In addition, the “high-frequency activity (120-140 Hz)” value in data set [1] (setting [8]) is recorded as “clear increase”; in data set [4] (M1 and DLS, after each injection), “clear increase”. Moreover, the “beta-gamma cross-frequency coupling (CFC) in the DLS” value in data set [1] (following each injection, n=15 sessions across 3 animals) was “reduced”. The “change in the already-reduced AIMs score” value in data set [2] (10 mg/kg ketamine-'infusion' given after the other treatments (test for sensitization)) was “No change”. In addition, the “persistent reduction of AIMs scores lasted (post-injection)” value in data set [2] (20 mg/kg ketamine-'infusion') was “at least 55 days”. In addition, the “L-DOPA-induced contralateral locomotor behavior” value in data set [2] is given as “did not significantly change”; in data set [2] (listed as Ketamine), “did not have a significant effect”. Also, the results for the “ipsiversive turning behavior (worsening of the Parkinsonism)” value in data set [2] and in data set [2] (listed as Ketamine) were “did not acutely induce” and “did not induce ipsilateral rotations”, respectively. The “anti-dyskinetic effect (LID / AIMs)” value in data set [2] (low-dose ketamine given for a 10 hr period, 5-20 mg/kg) is “dose-dependent long-term anti-dyskinetic effect; also recorded: Long-term dose-dependent reduction”. Moreover, the “LAO-AIMs score, pre-K (20 mg/kg) vs last testing session” value in data set [2] (n=5, p<0.05) is reported as “significantly reduced”. Further, the “UPDRS Dyskinesia score (sum of items 32-34)” value in data set [3] (case #1, 72 hr low-dose ketamine infusion) is given as “reduced”. Moreover, the dyskinesia entry is “free of dyskinesia” in data set [3] (case #1, at second infusion 3 years later despite increase in L-DOPA dose); “improved markedly” in data set [3] (case #1, during and after the infusion, carbidopa/L-DOPA dosages unchanged); “dramatic reduction” in data set [3] (case #2, low-dose ketamine infusion); “completely subsided” in data set [3] (case #3, following the infusion). The severe tremor result in data set [3] (case #1, during second infusion, tremor had returned 3 weeks later) was “resolved acutely”. Also, the “% dyskinesia on time” value in data set [3] (case #1, patient diary, 72 hr low-dose ketamine infusion) is “reduced”. Besides, in data set [3] (case #1, weeks 2-4 post-K), the LID result was “completely resolved”. The depression result in data set [3] (case #3) was “dramatically improved”. Also, in data set [3] (case #3, during the infusion), the motor symptoms result is on record as “acutely improved”. In addition, the headache result in data set [3] (case #4) is “improved”. Besides, the “effect on motor symptoms” value in data set [3] (cases #4 and 5 (STN DBS-treated)) is listed as “little effect”. Further, the tolerability and safety result in data set [3] (five PD case reports overall) was “excellent tolerability and safety”. In data set [4] (M1-DLS), the “coherence in the HFO frequency band” value was “increased”. The “correlation (r) of coherence in HFO and beta bands” value in data set [4] (n=5 sessions) is reported as −0.65. The “coherence in the beta band” value in data set [4] (with successive injections) is reported as “decreased”. Also, the “striatal [DA]” value in data set [5] (acute i.p. 20 mg/kg vs. saline, 30 min before euthanasia) was “unchanged”. Also, in data set [6] (10-hours infusion paradigm once a week, daily L-DOPA 6 then 12 mg/kg i.p.), the “reduction of mean LAO AIMs scores” value is reported as 50%. Besides, the “animals that did not develop any dyskinesia or only very subtle dyskinesia” value in data set [6] was 4 of 9.
For `NCCc1cc(O)c(O)cc1O` [6-OHDA, 6-hydroxydopamine], the “reduction of striatal TH expression in the lesioned side” value in data set [7] is on record as 87%. For the same compound, the “reduction of striatal DA content in the lesioned side” value in data set [5] (unilateral lesion, lesioned vs unlesioned side) is recorded as greater than 95%.
For the compound `CN[C@@]1(c2ccccc2Cl)CCCCC1=O` [R-ketamine], in data set [6], the “animals that did not develop any dyskinesia or only very subtle dyskinesia” value amounted to 1.
`NC12CC3CC(CC(C3)C1)C2` [amantadine]: the LID result in data set [3] (case #2, prior treatment, 200 mg daily) is reported as “failed to improve”.
